Experimental data taken from publication PMC6199744, “Development of Chemical Proteomics for the Folateome and Analysis of the Kinetoplastid Folateome” (ACS Infectious Diseases, 2018).
Like-named read-outs stand apart in the source and are kept apart here.

Experiments:
Format in all cases: binding
[1] = target: T1, HeLa cell extract proteins (Homo sapiens, UniProt P31942)
T1 construct: endogenous in cells; host or cells: HeLa cell extract
T1 sequence (P31942 1-346): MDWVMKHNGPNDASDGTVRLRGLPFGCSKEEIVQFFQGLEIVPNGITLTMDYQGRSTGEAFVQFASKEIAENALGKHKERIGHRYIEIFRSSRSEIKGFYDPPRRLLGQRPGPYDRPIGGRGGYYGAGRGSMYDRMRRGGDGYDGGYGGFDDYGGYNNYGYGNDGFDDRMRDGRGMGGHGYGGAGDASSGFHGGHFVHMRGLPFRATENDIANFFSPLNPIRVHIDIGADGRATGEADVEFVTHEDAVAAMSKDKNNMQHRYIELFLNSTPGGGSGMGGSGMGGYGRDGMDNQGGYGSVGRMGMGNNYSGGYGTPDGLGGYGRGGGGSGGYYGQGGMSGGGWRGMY

[2] = target: T2, HeLa cell extract proteins (Homo sapiens, UniProt Q6P2E9)
T2 construct: endogenous in cells; host or cells: HeLa cell extract
T2 sequence (Q6P2E9 1-1401): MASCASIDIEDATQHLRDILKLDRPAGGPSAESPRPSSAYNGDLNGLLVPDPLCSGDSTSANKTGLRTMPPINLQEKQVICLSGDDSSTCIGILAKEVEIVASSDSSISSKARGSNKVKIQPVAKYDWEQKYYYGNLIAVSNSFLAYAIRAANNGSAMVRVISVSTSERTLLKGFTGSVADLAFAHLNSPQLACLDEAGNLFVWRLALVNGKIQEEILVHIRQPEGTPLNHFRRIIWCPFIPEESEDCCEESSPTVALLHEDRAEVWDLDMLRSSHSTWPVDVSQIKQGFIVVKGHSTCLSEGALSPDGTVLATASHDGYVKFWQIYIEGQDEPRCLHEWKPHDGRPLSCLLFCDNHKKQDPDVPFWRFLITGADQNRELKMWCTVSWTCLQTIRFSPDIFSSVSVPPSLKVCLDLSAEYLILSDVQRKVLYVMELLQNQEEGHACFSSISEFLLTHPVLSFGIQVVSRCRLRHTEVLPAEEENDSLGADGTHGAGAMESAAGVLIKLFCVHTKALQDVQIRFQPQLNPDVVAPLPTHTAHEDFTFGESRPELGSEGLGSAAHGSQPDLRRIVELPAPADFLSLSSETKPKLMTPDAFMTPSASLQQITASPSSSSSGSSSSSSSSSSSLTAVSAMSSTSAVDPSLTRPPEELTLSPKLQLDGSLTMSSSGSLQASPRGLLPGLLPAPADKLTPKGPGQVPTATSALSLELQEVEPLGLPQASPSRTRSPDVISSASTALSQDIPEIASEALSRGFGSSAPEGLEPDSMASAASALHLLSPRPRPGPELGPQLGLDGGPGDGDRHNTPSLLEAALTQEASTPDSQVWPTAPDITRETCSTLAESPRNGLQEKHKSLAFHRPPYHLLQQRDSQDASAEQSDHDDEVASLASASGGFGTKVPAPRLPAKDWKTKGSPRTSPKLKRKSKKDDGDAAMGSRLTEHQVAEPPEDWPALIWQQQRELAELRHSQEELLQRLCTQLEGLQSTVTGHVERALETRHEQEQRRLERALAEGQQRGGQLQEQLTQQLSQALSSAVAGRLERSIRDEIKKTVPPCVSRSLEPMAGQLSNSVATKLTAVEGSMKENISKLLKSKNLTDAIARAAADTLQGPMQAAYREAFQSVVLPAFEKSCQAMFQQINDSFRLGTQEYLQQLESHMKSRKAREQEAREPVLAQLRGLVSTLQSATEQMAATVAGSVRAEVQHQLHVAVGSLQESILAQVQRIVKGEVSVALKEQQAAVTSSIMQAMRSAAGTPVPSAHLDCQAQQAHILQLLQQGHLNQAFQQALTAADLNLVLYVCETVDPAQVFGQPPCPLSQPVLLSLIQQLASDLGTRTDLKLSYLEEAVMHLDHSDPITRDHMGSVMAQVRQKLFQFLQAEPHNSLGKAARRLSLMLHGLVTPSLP

[3] = target: T3, HeLa cell extract proteins (Homo sapiens, UniProt Q16831)
T3 construct: endogenous in cells; host or cells: HeLa cell extract
T3 sequence (Q16831 whole entry): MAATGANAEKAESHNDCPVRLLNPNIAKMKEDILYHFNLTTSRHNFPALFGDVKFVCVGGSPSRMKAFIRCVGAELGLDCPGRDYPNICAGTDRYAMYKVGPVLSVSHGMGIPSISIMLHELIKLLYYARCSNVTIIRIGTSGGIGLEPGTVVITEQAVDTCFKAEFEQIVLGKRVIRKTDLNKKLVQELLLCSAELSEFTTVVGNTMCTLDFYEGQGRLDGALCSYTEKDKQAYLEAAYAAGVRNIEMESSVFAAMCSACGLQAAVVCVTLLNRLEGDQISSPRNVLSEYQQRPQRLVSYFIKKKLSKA

[4] = target: T4, HeLa cell extract proteins (Homo sapiens, UniProt P39019)
T4 construct: endogenous in cells; host or cells: HeLa cell extract

[5] = HeLa, protein UPP1 (ISOFORM 1 OF URIDINE PHOSPHORYLASE 1)
[6] = HeLa, protein RPS19 (40S RIBOSOMAL PROTEIN S19)

| Structure (SMILES) | fold changes relative to vehicle control ([1]; protein HNRNPH3, HeLa) | fold changes relative to vehicle control ([2]; HeLa, protein EDC4) | fold changes relative to vehicle control ([3]; HeLa, protein UPP1) | fold changes relative to vehicle control ([4]; protein RPS19, HeLa) | fold changes relative to vehicle control [1] | fold changes relative to vehicle control [2] | fold changes relative to vehicle control [3] | fold changes relative to vehicle control [4] | fold changes relative to vehicle control ([1]; HeLa, captured protein HNRNPH3) | fold changes relative to vehicle control [3, 5] | fold changes relative to vehicle control [4, 6] |
| --- | --- | --- | --- | --- | --- | --- | --- | --- | --- | --- | --- |
| Nc1nc2cccc(-c3ccccc3)c2n1Cc1ccc(Cl)c(Cl)c1 [compound 3] | 1.09 | 0.98 | 1.05 | 1.01 |  |  |  |  |  |  |  |
| Nc1nc2[nH]cc(CCc3ccc(C(=O)N[C@@H](CCC(=O)O)C(=O)O)cc3)c2c(=O)[nH]1 [PTX, pemetrexed] |  |  |  |  | 0.94 | 1.02 | 1.11 | 1.11 |  |  |  |
| Nc1nc2c(c(=O)[nH]1)N(C=O)C(CNc1ccc(C(=O)N[C@@H](CCC(=O)O)C(=O)O)cc1)CN2 (stereo partly shown) [LEU, leucovorin] |  | 1.03 |  |  |  |  |  |  | 0.94 | 1.01 | 1.12 |
| CCCCCCOc1cccc(Cc2cnc(N)nc2N)c1 [compound 2] | 0.97 | 1.12 | 1.16 | 1.19 |  |  |  |  |  |  |  |
| NCCOCCOCC(=O)Nc1nc2ncc(CNc3ccc(C(=O)NC(CCC(=O)O)C(=O)O)cc3)nc2c(=O)[nH]1 (stereo not shown) [compound 6] |  | 1.03 |  |  |  |  |  |  | 0.99 | 0.44 | 1.1 |
| CCCCCCOc1ccc(Cc2cnc(N)nc2N)cc1 [compound 1] | 1.08 | 0.87 | 0.88 | 0.98 |  |  |  |  |  |  |  |
| NCCCNc1ccc(C(=O)NC(CCC(=O)O)C(=O)O)cc1 (stereo not shown) [compound 7] |  | 0.97 |  |  |  |  |  |  | 1.01 | 0.96 | 1.06 |
